Data from patent US20170239323A1, “ORITAVANCIN FORMULATIONS” (The Medicines Company, priority 2016, published 2017).
Read-outs that look alike come from different tables or passages of the source.

How the values were obtained:
[1] = Dilution in Hank's Balanced Salt Solution (HBSS, plasma surrogate): pH and visual observations; type: physicochemical; settings: for time at which oritavancin started to fall out of solution: repeat with material 24 hours after reconstitution
Protocol: Reconstituting Orbactiv 400 mg (Oritavancin) in 20% w/v aqueous HPCD then diluting in Hank's Balanced Salt Solution (HBSS). 2.641 g of HPCD was dissolved in 13.205 mL of water to make a 20% w/v solution (pH=6.70). Eight (8) mL of the 20% w/v solution was added to a 400 mg vial of Orbactiv for a target oritavancin concentration of 50 mg/mL. […] A 1.5 mL aliquot of 50 mg/mL was removed from the vial and placed in a small glass vial and pH measured. Diluted 2 mL of 50 mg/mL oritavancin solution in 8 mL of HBSS. Visual observations and pH were recorded. (Table 12).
HBSS was used as a plasma surrogate in this experiment. Oritavancin at either 5 or 10 mg/mL precipitated from solution at 2 hours in HBSS. This experiment was repeated with the same material 24 hours later and observed over shorter time intervals. Diluted […] in a small glass vial to make a 10 mg/mL solution. Diluted […] in a small glass vial to make a 5 mg/mL solution. Solutions were observed and pH was tested every 0.25 hrs. (Table 14, Table 15).

[2] = Pharmacokinetics in ABSSSI patients after single 1200 mg IV oritavancin (ORBACTIV) in 1000 mL D5W; type: in vivo, human; settings: plasma; for AUC(0-t) / half-life: iv, 1200 mg
Protocol: Oritavancin (as ORBACTIV®) was evaluated in double-blind, controlled ABSSSI clinical trials, which included 976 adult patients treated with a single 1200 mg intravenous dose of oritavancin in 1000 mL D5W. The formulation was prepared by adding 40 mL of sterile water for injection (WFI) to each of three 400 mg vials of ORBACTIV® to provide a 10 mg/mL solution per vial. Each vial was gently swirled to avoid foaming and ensure that all ORBACTIV powder was completely reconstituted in solution. […] The three solutions were combined and diluted to 1000 mL total volume with 5% dextrose in sterile water (D5W), to give a 1.2 mg/mL solution of oritavancin. The formulation was administered to each subject intravenously over 3 hours, and PK was measured (Table 20). The median age of patients treated with oritavancin was 45.6 years, ranging between 18 and 89 years of age with 8.8%≧65 years of age. Patients treated with oritavancin were predominantly male (65.4%), 64.4% were Caucasian, 5.8% were African American, and 28.1% were Asian. Safety was evaluated for up to 60 days after dosing.

[3] = Table 12: 20% w/v HPCD reconstitution diluted in HBSS: oritavancin 10 mg/mL, HPCD 4% w/v, 0 hr
[4] = Table 12: 20% w/v HPCD reconstitution diluted in HBSS: oritavancin 10 mg/mL, HPCD 4% w/v, 0.5 hr
[5] = Table 12: 20% w/v HPCD reconstitution diluted in HBSS: oritavancin 10 mg/mL, HPCD 4% w/v, 1 hr
[6] = Table 12: 20% w/v HPCD reconstitution diluted in HBSS: oritavancin 10 mg/mL, HPCD 4% w/v, 2 hr
[7] = Table 14: repeat with 24-hour-old 20% w/v HPCD reconstitution diluted in HBSS: oritavancin 10 mg/mL, HPCD 2% w/v, 0 hr
[8] = Table 14: repeat with 24-hour-old 20% w/v HPCD reconstitution diluted in HBSS: oritavancin 10 mg/mL, HPCD 2% w/v, 0.25 hr
[9] = Table 15: 24-hour-old 20% w/v HPCD reconstitution diluted in HBSS: oritavancin 5 mg/mL, HPCD 2% w/v, 0 hr
[10] = Table 15: 24-hour-old 20% w/v HPCD reconstitution diluted in HBSS: oritavancin 5 mg/mL, HPCD 2% w/v, 0.25 hr
[11] = Table 15: 24-hour-old 20% w/v HPCD reconstitution diluted in HBSS: oritavancin 5 mg/mL, HPCD 2% w/v, 0.5 hr
[12] = Table 15: 24-hour-old 20% w/v HPCD reconstitution diluted in HBSS: oritavancin 5 mg/mL, HPCD 2% w/v, 0.75 hr
[13] = Table 15: 24-hour-old 20% w/v HPCD reconstitution diluted in HBSS: oritavancin 5 mg/mL, HPCD 2% w/v, 1 hr
[14] = mean, ABSSSI subjects, single 1200 mg IV dose over 3 hours (n = 297)

In the case of `CN[C@H](CC(C)C)C(=O)N[C@H]1C(=O)N[C@@H](CC(N)=O)C(=O)N[C@H]2C(=O)N[C@H]3C(=O)N[C@H](C(=O)N[C@H](C(=O)O)c4cc(O)cc(O)c4-c4cc3ccc4O)[C@H](O[C@H]3C[C@](C)(N)[C@@H](O)[C@H](C)O3)c3ccc(c(Cl)c3)Oc3cc2cc(c3O[C@@H]2O[C@H](CO)[C@@H](O)[C@H](O)[C@H]2O[C@H]2C[C@](C)(NCc3ccc(-c4ccc(Cl)cc4)cc3)[C@@H](O)[C@H](C)O2)Oc2ccc(cc2Cl)[C@H]1O` [Oritavancin], the “time at which oritavancin precipitated from solution” value ([1]; 5 mg/mL in HBSS (20% w/v HPCD reconstitution)) is reported as 2 h, the “time at which oritavancin started to fall out of solution” value ([1]; 5 mg/mL in HBSS) is reported as about 1.5 h and the “time at which oritavancin precipitated from solution” value ([1]; 10 mg/mL in HBSS (20% w/v HPCD reconstitution)) is reported as 2 h. For the same molecule, the “time at which oritavancin started to fall out of solution” value ([1]; 10 mg/mL in HBSS) was 0.5 h, the “time for which oritavancin remains in solution” value ([1]; 20% w/v aqueous HPCD reconstitution diluted into HBSS at 5 mg/mL) was “at least 1 hour” and the Observations [1, 3] was “Clear, colorless solution”. The pH [1, 3] was 5.83, the Observations [1, 4] was “Clear, colorless solution” and the pH [1, 4] was 5.86. For the same molecule, the Observations [1, 5] was “Clear, colorless solution”, the pH [1, 5] was 5.87 and the Observations [1, 6] was “Flocculent white precipitate”. For the same molecule, the pH [1, 6] was 5.92, the Observations [1, 7] was “Clear, colorless solution” and the pH [1, 7] was 6.19. The Observations [1, 8] was “Clear, colorless solution”, the pH [1, 8] was 6.21 and the pH ([1]; Table 14: repeat with 24-hour-old 20% w/v HPCD reconstitution diluted in HBSS: oritavancin 10 mg/mL, HPCD 2% w/v, 0.5 hr) was 6.30. For the same molecule, the pH ([1]; Table 14: repeat with 24-hour-old 20% w/v HPCD reconstitution diluted in HBSS: oritavancin 10 mg/mL, HPCD 2% w/v, 0.75 hr) was 6.33, the pH ([1]; Table 14: repeat with 24-hour-old 20% w/v HPCD reconstitution diluted in HBSS: oritavancin 10 mg/mL, HPCD 2% w/v, 1 hr) was 6.38 and the Observations [1, 9] was “Clear, colorless solution”. For the same molecule, the pH [1, 9] was 6.39, the Observations [1, 10] was “Clear, colorless solution” and the pH [1, 10] was 6.47. The Observations [1, 11] was “Clear, colorless solution”, the pH [1, 11] was 6.50 and the Observations [1, 12] was “Clear, colorless solution”. The pH [1, 12] was 6.59, the Observations [1, 13] was “Clear, colorless solution” and the pH [1, 13] was 6.61. It also gave a pH ([1]; Table 15: 24-hour-old 20% w/v HPCD reconstitution diluted in HBSS: oritavancin 5 mg/mL, HPCD 2% w/v, 1.25 hr) of 6.63, a pH ([1]; Table 15: 24-hour-old 20% w/v HPCD reconstitution diluted in HBSS: oritavancin 5 mg/mL, HPCD 2% w/v, 1.5 hr) of 6.71 and a pH ([1]; Table 15: 24-hour-old 20% w/v HPCD reconstitution diluted in HBSS: oritavancin 5 mg/mL, HPCD 2% w/v, 1.75 hr) of 6.76. The AUC ([2]; both sexes, human, intravenous, 1200 mg dose in man, read-out: plasma exposure (AUC) in man) was about 2800 µg·h/mL, the AUC(0-t) ([2]; both sexes, human, mean, ABSSSI subjects, single 1200 mg IV dose over 3 hours (n = 297), read-out: AUC0-24) was 1110 µg·h/mL and the AUC(0-t) ([2]; both sexes, human, mean, ABSSSI subjects, single 1200 mg IV dose over 3 hours (n = 297), read-out: AUC0-72) was 1530 µg·h/mL. For the same molecule, the half-life ([2]; both sexes, human, mean, ABSSSI subjects, single 1200 mg IV dose over 3 hours (n = 297), read-out: T1/2,α (converted)) was 2.29 h, the half-life ([2]; both sexes, human, mean, ABSSSI subjects, single 1200 mg IV dose over 3 hours (n = 297), read-out: T1/2,β (converted)) was 13.4 h and the half-life ([2]; both sexes, human, mean, ABSSSI subjects, single 1200 mg IV dose over 3 hours (n = 297), read-out: T1/2,γ (converted)) was 245 h. It also gave a Vd ([2]; both sexes, human, mean, ABSSSI subjects, single 1200 mg IV dose over 3 hours (n = 297), read-out: Vss) of 97.8 L, an AUC(0-inf) ([2]; both sexes, human, per Orbactiv Package Insert (Comparative Example 4): 1200 mg IV, D5W, 3 h infusion) of 2800 µg·h/mL and a Cmax ([2]; both sexes, human, per Orbactiv Package Insert (Comparative Example 4): 1200 mg IV, D5W, 3 h infusion, read-out: Cmax) of 138 µg/mL. The “AUC0-∞” value [2, 14] was 2800 µg·h/mL and the Cmax [2, 14] was 138 µg/mL.
